The values below come from ChEMBL document CHEMBL1158302, “Makaluvic acids A and B: novel alkaloids from the marine sponge Zyzzya fuliginosus” (1996).

SMILES strings stand for the structures. ≈ marks a conversion by molar mass, not a printed value. Calls of active or inactive are those of the source. No cut-off for these calls is given here.

This experiment has as its system P388. Nature of the experiment: Cytotoxicity against mouse P388 cells. It is filed as functional. The settings on record: for EC50: read-out: ED50 (the source's name).

With `Cn1cnc2c1c(N)nc(=O)n2C`, the result was inactive.

`Cn1cc2c3c1C(=O)C(N)=CC3=NCC2` [MAKALUVAMINE A]: the EC50 is 0.4 µg/mL (≈ 1.99 µM). For the molecule `Cn1cc2c3c1C(=O)C(N/C=C/c1ccc(O)cc1)=CC3=NCC2` [MAKALUVAMINE E], the EC50 came to 0.6 µg/mL (≈ 1.88 µM).

On to `CN1CCc2c[nH]c(C(=O)O)c2C1=O`, for which the result was inactive. Turning to `Cn1cc2c3c1C(=O)C(NCCc1ccc(O)cc1)=CC3=NCC2` [MAKALUVAMINE K], the EC50 worked out at 0.7 µg/mL (≈ 2.18 µM).
